Reference: US20030166601A1, “Novel colloid synthetic vectors for gene therapy” (priority 1999, published 2003)

Tested on: CD-1 mice
Test: Luciferase expression in organs after intravenous injection of pCILuc complexes
Type: in vivo
Conditions: 40 μg pCILuc i.v., 5 h
Protocol: Substituted aminoethanols (cationic compounds) were prepared as described in Examples 1-34. Their gene delivery ability was studied in vivo by intravenous injection (Table 1 and 2) using a standard method. The preparations were administered via tail vein injection to mice and gene expression determined after 5 hours. Female CD-1 mice, 13-15 g, were purchased from Charles River Inc. Forty microgram of pCILuc complexed with GC lipids or GC lipid:Chol dispersion as indicated weight ratios. After 5 h, mice were sacrificed and organs were collected. Organs were homogenized in 0.5 ml of lysis buffer and 20 μl of supernatant was used for luciferase assay. Luciferase activity was represented as a mean of relative light unit (RLU) of four mice. The lipids were either used alone or combined with cholesterol and complexed with a luciferase reporter gene plasmid by a standard procedure at a range of weight and charge ratios. For the in vivo screen, 40 μg of pCILuc was complexed with the formulation and injected into the mice.
All compounds were evaluated for in vivo activity. Two critical factors were examined, formulation with or without cholesterol and the ratio of cationic lipid to DNA. Cholesterol was tested at 1:1 mole ratio of lipid:chol. The studies were performed with a dose of 40 μg of pCILuc complexed with cationic lipid or lipid: Chol (1:1 mole ratio) injected i.v. into CD-1 mice and then luciferase activity in different organs determined 5 h later. The first evaluation included all of 14 GC-lipids at weight ratios of 2 and 10 (GC lipid to DNA). It was performed by four separated experiments. Each time cationic liposome DOTAP:Chol was used as a standard control.
Measurements were repeated with lipids GC-030, GC-034 and GC-029 at wider weight ratios than the first experiment. Luciferase activity is represented as a mean of relative light unit (RLU) of four mice. WR means weight ratio of GC lipids to DNA. The transfection activity was represented by luciferase activity RLU/organ. […] The transfection activity increased with the increased weight ratio (GC lipids to DNA). Inclusion of cholesterol can change the biodistribution of gene expression in the different organs examined. […] However this function of cholesterol was not seen with GC-034.

| SMILES | Luciferase RLU/20 μl lysate heart (WR 2) | Luciferase RLU/20 μl lysate kidney (WR 2) | Luciferase RLU/20 μl lysate liver (WR 2) | Luciferase RLU/20 μl lysate lung (WR 2) | Luciferase RLU/20 μl lysate heart (WR 10) | Luciferase RLU/20 μl lysate kidney (WR 10) | Luciferase RLU/20 μl lysate liver (WR 10) | Luciferase RLU/20 μl lysate lung (WR 10) | Luciferase RLU/20 μl lysate spleen (WR 10) | Luciferase RLU/20 μl lysate spleen (WR (lipid to DNA) 2) |
| --- | --- | --- | --- | --- | --- | --- | --- | --- | --- | --- |
| CC(C)CCC[C@@H](C)[C@H]1CC[C@H]2[C@@H]3CC=C4C[C@@H](OC(=O)NCCNC(=O)[C@@H](N)CCCN)CC[C@]4(C)[C@H]3CC[C@]12C [GC-003] | 37 RLU/20 μl lysate | 38 RLU/20 μl lysate | 33 RLU/20 μl lysate | 37 RLU/20 μl lysate | 39 RLU/20 μl lysate | 40 RLU/20 μl lysate | 73 RLU/20 μl lysate | 69 RLU/20 μl lysate | 65 RLU/20 μl lysate | 36 RLU/20 μl lysate |
| CCCCCCCCCCCCCCCCCCN(CCCCCCCCCCCCCCCCCC)C(=O)CNC(=O)[C@H](CCCN(CCCN)CCCN)N(CCCN)CCCN.O=C(O)C(F)(F)F.O=C(O)C(F)(F)F.O=C(O)C(F)(F)F.O=C(O)C(F)(F)F.O=C(O)C(F)(F)F.O=C(O)C(F)(F)F [GC-016] | 44 RLU/20 μl lysate | 41 RLU/20 μl lysate | 38 RLU/20 μl lysate | 45 RLU/20 μl lysate | 40 RLU/20 μl lysate | 40 RLU/20 μl lysate | 95 RLU/20 μl lysate | 67 RLU/20 μl lysate | 230 RLU/20 μl lysate | 40 RLU/20 μl lysate |
| CCCCCCCCCCCCCCCCCCN(CCCCCCCCCCCCCCCCCC)C(=O)[C@H](CSSC[C@H](NC(=O)[C@@H](N)CCCN)C(=O)N(CCCCCCCCCCCCCCCCCC)CCCCCCCCCCCCCCCCCC)NC(=O)[C@@H](N)CCCN.O=C(O)C(F)(F)F.O=C(O)C(F)(F)F.O=C(O)C(F)(F)F.O=C(O)C(F)(F)F [GC-025] | 33 RLU/20 μl lysate | 25 RLU/20 μl lysate | 38 RLU/20 μl lysate | 40 RLU/20 μl lysate | 27 RLU/20 μl lysate | 28 RLU/20 μl lysate | 27 RLU/20 μl lysate | 30 RLU/20 μl lysate | 32 RLU/20 μl lysate | 46 RLU/20 μl lysate |
| CCCCCCCCCCCCCCCCCCN(CCCCCCCCCCCCCCCCCC)C(=O)C(CSSCC(NC(=O)C(CCCNCCCN)NCCCN)C(=O)N(CCCCCCCCCCCCCCCCCC)CCCCCCCCCCCCCCCCCC)NC(=O)C(CCCNCCCN)NCCCN.O=C(O)C(F)(F)F.O=C(O)C(F)(F)F.O=C(O)C(F)(F)F.O=C(O)C(F)(F)F.O=C(O)C(F)(F)F.O=C(O)C(F)(F)F.O=C(O)C(F)(F)F.O=C(O)C(F)(F)F (stereo not shown) [GC-026] | 42 RLU/20 μl lysate | 41 RLU/20 μl lysate | 39 RLU/20 μl lysate | 40 RLU/20 μl lysate | 0 RLU/20 μl lysate | 0 RLU/20 μl lysate | 0 RLU/20 μl lysate | 0 RLU/20 μl lysate | 0 RLU/20 μl lysate | 40 RLU/20 μl lysate |
